Experimental data: ChEMBL document CHEMBL1139415, “Highly functionalized 7-azaindoles as selective PPAR gamma modulators” (Bioorg Med Chem Lett, 2008)

Experiments:
[1] = target: Prostaglandin E2 receptor EP3 subtype (Homo sapiens, UniProt P43115); test: Inhibition of prostanoid EP3 receptor
[2] = target: Delta-type opioid receptor (Homo sapiens, UniProt P41143); test: Displacement of radioligand from delta opioid receptor
[3] = target: Sodium-dependent serotonin transporter (Homo sapiens, UniProt P31645); test: Displacement of radioligand from SERT
Thromboxane A2 receptor = Thromboxane A2 receptor (Homo sapiens, UniProt P21731); test: Displacement of radioligand from TXA2 receptor
[4] = target: Beta-1 adrenergic receptor (Homo sapiens, UniProt P08588); test: Displacement of radioligand from adrenergic beta-1 receptor
D(3) dopamine receptor = D(3) dopamine receptor (Homo sapiens, UniProt P35462); test: Displacement of radioligand from dopamine D3 receptor
[5] = target: Sodium-dependent dopamine transporter (Homo sapiens, UniProt Q01959); test: Displacement of radioligand from DAT
[6] = Inhibition of PDE3
[7] = target: Alpha-2B adrenergic receptor (Homo sapiens, UniProt P18089); test: Displacement of radioligand from adrenergic alpha2B receptor
[8] = target: Muscarinic acetylcholine receptor M4 (Homo sapiens, UniProt P08173); test: Displacement of radioligand from muscarinic M4 receptor
[9] = target: Prostaglandin E2 receptor EP4 subtype (Homo sapiens, UniProt P35408); test: Inhibition of prostanoid EP4 receptor
D(1A) dopamine receptor = D(1A) dopamine receptor (Homo sapiens, UniProt P21728); test: Displacement of radioligand from dopamine D1 receptor
[10] = target: Muscarinic acetylcholine receptor M3 (Homo sapiens, UniProt P20309); test: Displacement of radioligand from muscarinic M3 receptor
Substance-K receptor = Substance-K receptor (Homo sapiens, UniProt P21452); test: Displacement of radioligand from tachykinin NK2 receptor
[11] = target: Kappa-type opioid receptor (Homo sapiens, UniProt P41145); test: Displacement of radioligand from kappa opioid receptor
[12] = target: 5-hydroxytryptamine receptor 2B (Homo sapiens, UniProt P41595); test: Displacement of radioligand from 5HT2B receptor
[13] = target: Prostaglandin F2-alpha receptor (Homo sapiens, UniProt P43088); test: Inhibition of prostanoid FP receptor
[14] = target: Prostaglandin D2 receptor (Homo sapiens, UniProt Q13258); test: Inhibition of prostanoid DP receptor
[15] = target: Beta-3 adrenergic receptor (Homo sapiens, UniProt P13945); test: Displacement of radioligand from adrenergic beta3 receptor
[16] = target: Alpha-2A adrenergic receptor (Homo sapiens, UniProt P08913); test: Displacement of radioligand from adrenergic alpha2A receptor
[17] = Inhibition of PDE2
D(2) dopamine receptor = D(2) dopamine receptor (Homo sapiens, UniProt P14416); test: Displacement of radioligand from dopamine D2S receptor
Prostacyclin receptor = Prostacyclin receptor (Homo sapiens, UniProt P43119); test: Inhibition of prostanoid IP receptor
[18] = target: Polyunsaturated fatty acid 5-lipoxygenase (Homo sapiens, UniProt P09917); test: Inhibition of 5-Lipoxygenase
[19] = target: Sodium-dependent noradrenaline transporter (Homo sapiens, UniProt P23975); test: Displacement of radioligand from NET
Mu-type opioid receptor = Mu-type opioid receptor (Homo sapiens, UniProt P35372); test: Displacement of radioligand from mu opioid receptor

Chain of Prostaglandin D2 receptor (Q13258 whole entry): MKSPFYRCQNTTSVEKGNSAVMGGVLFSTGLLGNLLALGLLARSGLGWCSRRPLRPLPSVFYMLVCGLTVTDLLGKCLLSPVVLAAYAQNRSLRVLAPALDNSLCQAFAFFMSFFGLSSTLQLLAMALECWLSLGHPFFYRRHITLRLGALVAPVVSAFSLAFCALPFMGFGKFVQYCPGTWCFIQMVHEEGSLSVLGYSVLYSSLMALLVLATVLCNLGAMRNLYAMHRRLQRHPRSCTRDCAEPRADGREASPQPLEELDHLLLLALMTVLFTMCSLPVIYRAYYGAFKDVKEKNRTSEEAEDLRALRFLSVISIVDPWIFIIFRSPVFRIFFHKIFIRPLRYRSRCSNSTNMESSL
Chain of Alpha-2A adrenergic receptor (P08913 whole entry): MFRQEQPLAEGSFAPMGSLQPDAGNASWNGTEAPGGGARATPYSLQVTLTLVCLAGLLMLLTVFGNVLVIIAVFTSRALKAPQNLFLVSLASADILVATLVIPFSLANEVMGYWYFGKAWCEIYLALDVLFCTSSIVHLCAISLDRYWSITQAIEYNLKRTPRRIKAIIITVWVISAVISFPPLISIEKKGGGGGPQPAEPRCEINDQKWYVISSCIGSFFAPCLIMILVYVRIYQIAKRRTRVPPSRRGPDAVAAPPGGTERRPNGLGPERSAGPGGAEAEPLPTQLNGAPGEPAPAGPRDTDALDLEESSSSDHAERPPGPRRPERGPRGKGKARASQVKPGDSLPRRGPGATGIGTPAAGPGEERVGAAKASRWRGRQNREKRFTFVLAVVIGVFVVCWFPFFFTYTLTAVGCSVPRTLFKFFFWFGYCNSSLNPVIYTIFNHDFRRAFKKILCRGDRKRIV
Chain of Beta-1 adrenergic receptor (P08588 whole entry): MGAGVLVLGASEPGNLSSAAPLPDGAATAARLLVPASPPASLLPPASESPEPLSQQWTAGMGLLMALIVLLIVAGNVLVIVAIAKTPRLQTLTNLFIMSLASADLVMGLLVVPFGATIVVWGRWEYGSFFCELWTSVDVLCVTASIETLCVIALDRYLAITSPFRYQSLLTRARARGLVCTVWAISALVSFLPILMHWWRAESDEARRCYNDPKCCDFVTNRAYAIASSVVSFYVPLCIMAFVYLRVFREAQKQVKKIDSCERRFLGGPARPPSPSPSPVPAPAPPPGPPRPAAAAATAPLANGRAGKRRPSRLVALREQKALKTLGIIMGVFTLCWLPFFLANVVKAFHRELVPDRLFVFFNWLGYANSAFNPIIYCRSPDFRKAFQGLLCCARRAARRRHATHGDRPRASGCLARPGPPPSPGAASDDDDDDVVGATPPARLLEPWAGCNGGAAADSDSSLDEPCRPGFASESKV
Chain of Alpha-2B adrenergic receptor (P18089 whole entry): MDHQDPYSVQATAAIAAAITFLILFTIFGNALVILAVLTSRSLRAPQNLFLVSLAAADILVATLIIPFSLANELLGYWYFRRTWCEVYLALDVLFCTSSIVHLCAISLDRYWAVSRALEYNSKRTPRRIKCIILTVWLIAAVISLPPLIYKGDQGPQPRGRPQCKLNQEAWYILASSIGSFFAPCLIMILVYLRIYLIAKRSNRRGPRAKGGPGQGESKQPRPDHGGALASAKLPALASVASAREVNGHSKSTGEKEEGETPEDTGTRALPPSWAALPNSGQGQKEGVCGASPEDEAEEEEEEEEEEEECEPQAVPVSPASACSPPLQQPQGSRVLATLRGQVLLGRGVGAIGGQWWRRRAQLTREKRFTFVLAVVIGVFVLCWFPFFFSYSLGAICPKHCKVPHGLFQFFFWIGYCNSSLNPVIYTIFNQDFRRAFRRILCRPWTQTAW
Chain of Substance-K receptor (P21452 whole entry): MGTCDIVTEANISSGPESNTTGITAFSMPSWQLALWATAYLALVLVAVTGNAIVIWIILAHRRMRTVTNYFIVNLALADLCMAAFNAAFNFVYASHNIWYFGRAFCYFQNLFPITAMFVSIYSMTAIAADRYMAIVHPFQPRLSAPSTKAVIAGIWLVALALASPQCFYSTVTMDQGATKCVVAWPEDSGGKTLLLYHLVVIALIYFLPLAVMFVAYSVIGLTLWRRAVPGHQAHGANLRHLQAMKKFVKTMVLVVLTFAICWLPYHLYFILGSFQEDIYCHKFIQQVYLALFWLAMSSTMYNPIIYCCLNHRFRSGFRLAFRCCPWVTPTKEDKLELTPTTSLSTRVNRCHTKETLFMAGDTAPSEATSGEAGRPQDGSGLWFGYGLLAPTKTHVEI
Chain of Sodium-dependent dopamine transporter (Q01959 whole entry): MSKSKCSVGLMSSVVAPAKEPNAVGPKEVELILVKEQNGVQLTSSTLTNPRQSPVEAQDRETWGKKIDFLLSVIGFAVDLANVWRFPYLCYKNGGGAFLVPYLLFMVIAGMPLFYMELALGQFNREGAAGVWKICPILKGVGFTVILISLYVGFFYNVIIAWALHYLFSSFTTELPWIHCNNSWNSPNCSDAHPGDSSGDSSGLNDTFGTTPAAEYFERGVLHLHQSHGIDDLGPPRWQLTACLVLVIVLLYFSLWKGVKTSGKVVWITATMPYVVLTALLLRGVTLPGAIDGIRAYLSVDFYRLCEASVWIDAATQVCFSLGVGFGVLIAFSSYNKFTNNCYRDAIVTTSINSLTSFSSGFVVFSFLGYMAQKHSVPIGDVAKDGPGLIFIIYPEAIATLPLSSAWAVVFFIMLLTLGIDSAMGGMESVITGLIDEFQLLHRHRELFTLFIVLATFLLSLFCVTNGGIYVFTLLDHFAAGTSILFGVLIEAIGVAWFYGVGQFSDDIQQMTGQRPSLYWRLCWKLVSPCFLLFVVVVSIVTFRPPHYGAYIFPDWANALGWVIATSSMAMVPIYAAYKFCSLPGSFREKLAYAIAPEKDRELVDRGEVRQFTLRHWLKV
Chain of D(3) dopamine receptor (P35462 whole entry): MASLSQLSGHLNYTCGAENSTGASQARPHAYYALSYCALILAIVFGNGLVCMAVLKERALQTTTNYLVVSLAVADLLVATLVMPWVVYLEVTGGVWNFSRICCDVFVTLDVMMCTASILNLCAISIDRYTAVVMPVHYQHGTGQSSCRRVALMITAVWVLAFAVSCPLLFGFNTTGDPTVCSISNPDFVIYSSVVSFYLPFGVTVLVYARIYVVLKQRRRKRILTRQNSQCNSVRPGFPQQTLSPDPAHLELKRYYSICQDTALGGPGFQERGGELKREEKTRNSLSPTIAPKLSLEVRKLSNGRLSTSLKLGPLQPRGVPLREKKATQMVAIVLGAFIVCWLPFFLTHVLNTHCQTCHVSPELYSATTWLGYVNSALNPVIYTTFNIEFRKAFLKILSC
Chain of Muscarinic acetylcholine receptor M3 (P20309 whole entry): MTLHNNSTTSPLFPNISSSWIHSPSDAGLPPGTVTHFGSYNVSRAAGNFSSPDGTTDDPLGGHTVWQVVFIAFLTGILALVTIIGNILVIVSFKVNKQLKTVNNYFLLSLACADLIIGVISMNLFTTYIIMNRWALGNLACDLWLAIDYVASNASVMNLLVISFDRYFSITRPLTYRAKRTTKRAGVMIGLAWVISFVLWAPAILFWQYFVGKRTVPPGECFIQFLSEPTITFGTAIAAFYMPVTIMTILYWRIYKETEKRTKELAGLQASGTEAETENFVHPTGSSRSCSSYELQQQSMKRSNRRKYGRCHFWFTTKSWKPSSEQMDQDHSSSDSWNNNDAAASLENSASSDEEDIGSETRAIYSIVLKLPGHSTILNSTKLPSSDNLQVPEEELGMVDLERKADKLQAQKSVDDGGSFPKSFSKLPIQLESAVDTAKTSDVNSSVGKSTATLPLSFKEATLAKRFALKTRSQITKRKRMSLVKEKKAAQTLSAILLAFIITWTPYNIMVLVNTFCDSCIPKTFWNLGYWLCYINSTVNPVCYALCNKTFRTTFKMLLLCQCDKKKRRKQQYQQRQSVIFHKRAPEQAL
Chain of Delta-type opioid receptor (P41143 whole entry): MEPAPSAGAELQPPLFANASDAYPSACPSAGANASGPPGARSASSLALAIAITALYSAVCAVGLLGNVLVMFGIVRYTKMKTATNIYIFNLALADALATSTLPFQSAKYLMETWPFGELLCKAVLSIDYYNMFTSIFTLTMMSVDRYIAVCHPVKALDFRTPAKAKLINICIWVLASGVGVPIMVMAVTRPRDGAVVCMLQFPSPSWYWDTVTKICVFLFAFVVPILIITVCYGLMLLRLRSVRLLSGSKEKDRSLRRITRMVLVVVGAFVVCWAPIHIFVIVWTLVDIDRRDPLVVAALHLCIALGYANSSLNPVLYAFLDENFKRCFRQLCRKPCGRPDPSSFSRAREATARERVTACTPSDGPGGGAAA
Chain of 5-hydroxytryptamine receptor 2B (P41595 whole entry): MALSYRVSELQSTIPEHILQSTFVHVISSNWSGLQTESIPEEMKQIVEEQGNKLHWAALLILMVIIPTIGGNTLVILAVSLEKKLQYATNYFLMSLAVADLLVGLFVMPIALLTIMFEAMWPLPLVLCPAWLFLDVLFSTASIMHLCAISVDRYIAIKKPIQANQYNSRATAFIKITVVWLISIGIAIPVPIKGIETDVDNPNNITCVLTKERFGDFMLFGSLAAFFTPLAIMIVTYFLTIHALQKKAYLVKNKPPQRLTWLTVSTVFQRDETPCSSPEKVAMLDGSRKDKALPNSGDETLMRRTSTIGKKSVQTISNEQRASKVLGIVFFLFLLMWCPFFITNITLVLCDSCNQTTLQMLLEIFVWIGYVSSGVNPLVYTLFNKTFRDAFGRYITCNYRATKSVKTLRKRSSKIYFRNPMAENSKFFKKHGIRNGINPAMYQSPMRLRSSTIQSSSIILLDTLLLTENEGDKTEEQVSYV
Chain of Prostaglandin F2-alpha receptor (P43088 whole entry): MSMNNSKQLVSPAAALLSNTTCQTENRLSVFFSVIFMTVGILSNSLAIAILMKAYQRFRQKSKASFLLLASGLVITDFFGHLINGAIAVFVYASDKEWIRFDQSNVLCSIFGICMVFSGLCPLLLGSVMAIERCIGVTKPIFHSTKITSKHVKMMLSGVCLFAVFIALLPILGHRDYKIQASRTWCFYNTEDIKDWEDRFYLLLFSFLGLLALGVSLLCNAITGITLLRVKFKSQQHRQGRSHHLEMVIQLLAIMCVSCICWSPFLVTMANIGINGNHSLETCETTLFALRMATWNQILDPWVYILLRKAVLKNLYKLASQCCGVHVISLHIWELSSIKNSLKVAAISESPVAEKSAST

`Cc1c(C(=O)c2ccc(Cl)cc2)c2ccc(OC(F)(F)F)cc2n1Cc1cccc(O[C@H](C)C(=O)O)c1` gave an IC50 [1] of 1220 nM, an IC50 [2] of 1690 nM and an IC50 [3] of 970 nM. It also gave an IC50 (Thromboxane A2 receptor) of 2030 nM, an IC50 [4] of 4070 nM and an IC50 (D(3) dopamine receptor) of 837 nM. For the same compound, the IC50 [5] was 3410 nM, the IC50 [6] was 22500 nM and the IC50 [7] was 770 nM. For the same compound, the IC50 [8] was 1340 nM, the IC50 [9] was 3700 nM and the IC50 (D(1A) dopamine receptor) was 1530 nM. The IC50 [10] was 1560 nM, the IC50 (Substance-K receptor) was 530 nM and the IC50 [11] was 3480 nM. It also gave an IC50 [12] of 1140 nM, an IC50 [13] of 2730 nM and an IC50 [14] of 8450 nM. For the same compound, the IC50 [15] was 4860 nM, the IC50 [16] was 1650 nM and the IC50 [17] was 29100 nM. For the same compound, the IC50 (D(2) dopamine receptor) was 3550 nM, the IC50 (Prostacyclin receptor) was 6340 nM and the IC50 [18] was 1640 nM. The IC50 [19] was 2160 nM and the IC50 (Mu-type opioid receptor) was 1860 nM.
